Source: patent US5098933A, “Pharmaceutically useful Michael addition products of unsaturated aldehydes and ketones and ascorbic acid” (Theracel Corporation, priority 1990, dated 1992)

Key:
[1] = test system: IL-2; test: Immunotoxicity--Multi-dose: IL-2 induction; type: in vivo, mice
Protocol: (§1) The study incorporated five treatment groups into its design: group 1, sham intravenous control; group 2, 100 mg/kg/day perorally; group 3, 1000 mg/kg/day intravenously; group 4, 100 mg/kg/day perorally, and, group 5, 100 mg/kg/day intravenously. Mice were administered KCPBL daily for a total of fourteen days via the oral (0.2 ml of a 147.5 mg/ml solution or a 29.5 mg/ml solution by gavage) and intravenous route (0.2 ml of 147.5 mg/ml solution or a 29.5 mg/ml solution by tail vein) to achieve a dose of 100 or 1000 mg/kg, respectively. The test dose was prepared fresh daily and dissolved in sterile non-pyrogenic saline. On the fifteenth day the mice were weighed, sacrificed, and the spleens, lungs, livers, kidneys and thymuses removed. These organs were weighed and, except for the spleens, the formalin-fixed organs were analyzed by a veterinary pathologist. Only two randomly-selected sets of animal organs per treatment group were histopathologically evaluated since the remaining three animals were used to isolate splenic lymphocytes for use in cellular immunoassays.
(§2) A leukocyte differential was obtained on peripheral blood samples and spleen cell counts (performed with Coulter Counter), and an IL-2 induction assessment as well as standard lymphocyte stimulation assays using PHA, CON-A and PWM conducted.
(§3) The individual spleens of three mice from control and test groups were processed to isolate lymphocytes and the protocols for lymphocyte blastogenesis, IL-2 induction and assay were performed. The remaining two mice in each group were sacrificed and their lungs, liver, kidney, and spleen were fixed in formalin and sent to AnMed Biosafe for histopathologic examination.

[2] = Parenteral Toxicity--LD50 in mice; conditions: mouse, in vivo, ip
Protocol: (§4) The objective of this experiment was to determine the LD50 value for KCPBL when administered intraperitoneally to mice in a standard LD50 test procedure.
(§5) The test animals were CD-1 male mice. The mean weight for these animals on the day of test product administration was 25.5 grams.
(§6) KCPBL (lot 101, consisting of 42% stereoisomer A and 58% stereoisomer B) was dissolved in pyrogen-free normal (0.85%) saline (NaCl).
(§7) Five animals constituted each treatment group.
(§8) Each mouse received 0.5 ml by intraperitoneal (i.p.) injection, using a 3.0 cc syringe fitted with a 23-gauge needle.
(§9) All mice were observed daily for signs, symptoms and survival for three days. Survival statistics were determined after third day.
(§10) Two mice were randomly selected from the control and high dose test group for sacrifice and selection of tissues for histopatholigic examination.
(§11) LD50 was calculated by the method of Spearman & Karber: Basic Exercises in Immunochemistry, A. Nowatny (Ed); Pg 184-85, Springer-Verlag,N.J.

[3] = test system: CD-1 male mice; test: Parenteral Toxicity--LD50 in mice
Protocol: as §4, §5, §6, §7, §8, §9, §10, §11

[4] = test system: splenic lymphocytes; test: Immunotoxicity--Multi-dose: lymphocyte blastogenesis / stimulation (PHA, Con A, PWM); type: in vivo, mice
Protocol: The immunotoxicological potential of KCPBL was evaluated in this experiment in which the study drug was administered to CD-1 mice for fourteen days (100 or 1000 mg/kg/day), either perorally (by gavage) or intravenously (tail vein). On the fifteenth day, the mice were weighed and sacrificed. The spleen, lungs, liver, kidneys and thymus were removed from each animal, fixed in formalin and histopathologically evaluated. In addition, a differential white blood cell count was obtained for a peripheral blood sample as well as the following tests performed: spleen cell counts (performed with Coulter Counter) and lymphocyte stimulation assays using PHA, CON-A and PWM techniques.
as §1, with “The study incorporated five treatment groups into its design: group 1, sham intravenous control; group 2, 100 mg/kg/day perorally; group 3, 1000 mg/kg/day intravenously; group 4, 100 mg/kg/day perorally, and, group 5, 100 mg/kg/day intravenously.” left out
as §2, §3

[5] = test system: immune system; test: Tests to establish immunomodulatory properties (overall statement); type: in vivo; conditions: normal antigen stimulated mice
Protocol: The following tests were conducted on various compounds within the scope of this invention to establish their immunodmodulatory properties. […] Conversely, at higher dosage levels, e.g. about 200 to 600 mg/kg body weight they function as immunoinhibitors.
The tests used to establish immunostimulation were:

[6] = treated vs sham-injected controls

Compound: O=C1CCC(C2(O)C(=O)OC3C(O)COC32O)C1 (stereo not drawn) [KCPBL]
- IL-2 ([1]; 100 mg/kg IV (group 5)): 41.15 HMU/MI
- IL-2 ([1]; 100 mg/kg P.O. (group 4)): 44.81 ± 20.8 HMU/MI
- IL-2 ([1]; 1000 mg/kg IV (group 3)): 18.12 ± 10.50 HMU/MI
- IL-2 ([1]; 1000 mg/kg P.O. (group 2)): 21.11 ± 13.69 HMU/MI
- IL-2 production [1, 6]: comparable
- LD50 at 72 h [2]: ~8570 mg/kg
- deaths ([3]; highest dose level, i.p.): Only two animals died
- organ histopathology (lungs, liver, kidneys) ([3]; mouse, in vivo): no significant deviations in organ histopathology
- overt signs or symptoms of toxic response ([3]; mouse, in vivo, ip): no overt signs or symptoms observed
- Lymphocyte Blastogenesis, Con A ([4]; 100 mg/kg IV (group 5)): 17292 ± 3202
- Lymphocyte Blastogenesis, PHA ([4]; 100 mg/kg IV (group 5)): 8513 ± 3950
- Lymphocyte Blastogenesis, PWM ([4]; 100 mg/kg IV (group 5)): 7125 ± 3899
- Lymphocyte Blastogenesis, RPMI ([4]; 100 mg/kg IV (group 5)): 234 ± 116
- Lymphocyte Blastogenesis, Con A ([4]; 100 mg/kg P.O. (group 4)): 18948 ± 3543
- Lymphocyte Blastogenesis, PHA ([4]; 100 mg/kg P.O. (group 4)): 13432 ± 4075
- Lymphocyte Blastogenesis, PWM ([4]; 100 mg/kg P.O. (group 4)): 6733 ± 1181
- Lymphocyte Blastogenesis, RPMI ([4]; 100 mg/kg P.O. (group 4)): 307 ± 52
- Lymphocyte Blastogenesis, Con A ([4]; 1000 mg/kg IV (group 3)): 14471 ± 2913
- Lymphocyte Blastogenesis, PHA ([4]; 1000 mg/kg IV (group 3)): 4473 ± 1181
- Lymphocyte Blastogenesis, PWM ([4]; 1000 mg/kg IV (group 3)): 4402 ± 3641
- Lymphocyte Blastogenesis, RPMI ([4]; 1000 mg/kg IV (group 3)): 203 ± 122
- Lymphocyte Blastogenesis, Con A ([4]; 1000 mg/kg P.O. (group 2)): 15151 ± 627
- Lymphocyte Blastogenesis, PHA ([4]; 1000 mg/kg P.O. (group 2)): 8189 ± 1602
- Lymphocyte Blastogenesis, PWM ([4]; 1000 mg/kg P.O. (group 2)): 4896 ± 1547
- Lymphocyte Blastogenesis, RPMI ([4]; 1000 mg/kg P.O. (group 2)): 244 ± 97
- LSA response to PHA, CON-A and PWM lectins [4, 6]: comparable
- immunostimulatory activity on T-helper (Th) mediated lymphocyte functions [5]: demonstrated an immunostimulatory activity on T-helper (Th) mediated lymphocyte functions
